Experimental data: patent publication US7943606B2, “Compositions and methods to control abnormal cell growth” (CanCure Laboratories, LLC, priority 2005, dated 2011)

What was measured:
MXT tumor = experiment: MXT mouse mammary tumor model: tumor volume and survival; assay type: in vivo; conditions: Example 31
Excerpt: Tumors were developed in first generation hybrid BDF1 (C57 B1 female×DBA/2 male) adult female mice kept at specified pathogen free (SPF) hygienic level. Suspensions of HL-60 human leukemia cells, or approximately 0.1 cm^3 volume of tumor tissue derived from HT-168 human melanoma, PC-3 human prostate adenocarcinoma, T47D human breast carcinoma, MXT mouse mammary cancer, or mouse B16 melanoma cells were implanted subcutaneously to develop the tumors. After 12-18 days when the tumor-bearing mice were first treated, the size of the tumors was in the 0.2-0.4 cm^3 range. All compounds used were dissolved in physiological (0.9%) saline (NaCl), and the agents, alone or in combinations, were applied subcutaneously or intraperitoneally in 50 μl volume. Tumor volume was determined by calipers in three dimensions; this technique is well known to one having ordinary skill in the art. Tumor volume was calculated according to the generally accepted formula: V=a^2×b×π/6, where “a” and “b” mean the shortest and longest diameter, respectively, of the measured tumor.
The mouse mammary MXT tumor was developed as described above. On day 7 after transplantation of tumor cells, the animals were either remained untreated (group 1) or were treated with 2 mg/kg of CisPt alone (Group 2), or 4 mg/kg of CisPt alone (Group 3), or 4.6 mg/kg of CCDTHT alone (Group 4), or 2 mg/kg of CisPt+4.6 mg/kg of CCDTHT (Group 5), or 4 mg/kg of CisPt+4.6 mg/kg of CCDTHT (Group 6). CCDTHT and CisPt were administered subcutaneously and intraperitoneally, respectively, once daily for 10 days, including a 2-day rest period after 5 days of treatment (i.e., the last treatment was on day 19). Each group consisted of 7 animals, and the mean values±std. dev. for tumor volumes and body weight are shown in TABLE 4 and TABLE 5, respectively. While in this tumor model CCDTHT alone reduced the tumor volume less effectively than in the human tumor models, it clearly added to the tumor volume-reducing effect of CisPt (TABLE 4). A dramatic reduction in tumor volume was particularly evident in Group 6 (4 mg/kg CisPt+4.6 mg/kg CCDTHT).
The mouse mammary MXT tumor model was developed and treated as described above. On day 7 the animals were either remained untreated (Group 1) or were treated with 3 mg/kg of CisPt (Group 2) or 3 mg/kg of CisPt+15 mg/kg of highly purified PALP (Group 3). CisPt and PALP were administered intraperitoneally and subcutaneously, respectively, seven times on every second day (i.e., treatments were terminated on day 21). Each group included 7 animals; the mean values±std. dev. for tumor volumes and body weight are shown in TABLE 6 and TABLE 7, respectively.
The mouse mammary MXT tumor model was developed and treated as described above. On day 7 the animals either remained untreated (Group 1) or were treated with 3 mg/kg CisPt (Group 2), 3 mg/kg CisPt+4.6 mg/kg of CCDTHT (Group 3), or 3 mg/kg CisPt+4.6 mg/kg of CCDTHT+15 mg/kg highly purified PALP (Group 4). CisPt was administered intraperitoneally 9-times once every second day; CCDTHT was administered for 15 days once daily; and PALP was administered 3 times every 3rd day. In each group 7 mice were included. The mean values±std. dev. for tumor volumes and body weights are shown in TABLE 9 and TABLE 10, respectively.

3A-SubE cells = experiment: Viability of 3A-SubE post crisis placenta cells (MTT assay); assay type: cell-based; conditions: 50 μM 48 hours, then 96 hours without CCDTHT
[1] = Toxicological studies in mice; assay type: in vivo, mouse
Method: Accordingly, a well-tolerated dose for CCDTHT in mice is 450 μmole/animal (weighing about 25 g) which corresponds to a dose of 4.6 mg/kg. Therapeutically effective concentrations in humans will exert maximal inhibitory effects on the growth of non-healthy tissues without causing significant toxicity in normal healthy tissues.
Parallel toxicological studies also have been performed with 200-500 μmole/animal doses of the commercially available CCompound1. […] CCompound26, which may have an even better toxicity profile based on in vitro experiments with normal cells, was synthesized much later and has not yet been tested in animal experiments.

[2] = CisPt 2 mg/kg i.p. and/or CCDTHT 4.6 mg/kg s.c., once daily

CC[N+](C)(CC)CCOCc1ccc2sc3ccccc3c(=O)c2c1.[I-] [CCDTHT, N,N-diethyl-N-methyl-2-[(9-oxo-9H-thioxanthen-2-yl)methoxy]-ethanaminium iodide]
survival (MXT tumor; CisPt 2 mg/kg and/or CCDTHT 4.6 mg/kg (groups 2, 4, 5)): 30.6 ± 3.2 days
Tumor volume, Day 14 (MXT tumor; [2]): 4.14 ± 0.71 cm^3
Tumor volume, Day 18 (MXT tumor; [2]): 6.62 ± 0.43 cm^3
Tumor volume, Day 21 (MXT tumor; [2]): 9.35 ± 0.69 cm^3
Tumor volume, Day 7 (MXT tumor; CisPt 2 mg/kg i.p. and/or CCDTHT 4.6 mg/kg s.c., start of treatment): 0.43 ± 0.07 cm^3
reversibility: proliferation in fresh medium after treatment, 3A-SubE (3A-SubE cells): not sufficient to suppress proliferation
death of animals by day 30 ([1]; 900 μmole (about 9.2 mg/kg)): 40%
tissue alterations ([1]; 900 μmole (about 9.2 mg/kg)): mild parenchymal degeneration in the heart, focal hypostasis and chronic bronchopneumonia in the lung, and multifocal degeneration of hepatocytes in the liver
change in the composition of various blood constituents ([1]; single 450 μmole (about 4.6 mg/kg) or 400 μmole daily for 5 consecutive days): did not cause any significant change
pathological alterations in liver, brain, kidney, heart, spleen, intestine and lung ([1]; single 450 μmole or 400 μmole daily for 5 consecutive days): did not induce significant pathological alterations
